Results on 4 compounds are retold here after ChEMBL document CHEMBL1641373, “Trishomocubane as a scaffold for the development of selective dopamine transporter (DAT) ligands” (Bioorg Med Chem Lett, 2011).

In assay [1] the target is 5-hydroxytryptamine receptor 1D (Homo sapiens) (UniProt P28221). Briefly: Inhibition of 5HT1D receptor at 10 uM.
The target in assay [2] is Beta-1 adrenergic receptor (Homo sapiens) (UniProt P08588). Briefly: Inhibition of beta1 adrenergic receptor at 10 uM.
Assay [3] addresses Histamine H4 receptor (Homo sapiens) (UniProt Q9H3N8). Briefly: Inhibition of H4 receptor at 10 uM.
Assay [4] addresses 5-hydroxytryptamine receptor 5A (Homo sapiens) (UniProt P47898). In words: Inhibition of 5HT5A receptor at 10 uM.
Assay [5] concerns the target T1, Muscarinic acetylcholine receptor M1 (Homo sapiens) (UniProt P11229).
T1 sequence (whole entry): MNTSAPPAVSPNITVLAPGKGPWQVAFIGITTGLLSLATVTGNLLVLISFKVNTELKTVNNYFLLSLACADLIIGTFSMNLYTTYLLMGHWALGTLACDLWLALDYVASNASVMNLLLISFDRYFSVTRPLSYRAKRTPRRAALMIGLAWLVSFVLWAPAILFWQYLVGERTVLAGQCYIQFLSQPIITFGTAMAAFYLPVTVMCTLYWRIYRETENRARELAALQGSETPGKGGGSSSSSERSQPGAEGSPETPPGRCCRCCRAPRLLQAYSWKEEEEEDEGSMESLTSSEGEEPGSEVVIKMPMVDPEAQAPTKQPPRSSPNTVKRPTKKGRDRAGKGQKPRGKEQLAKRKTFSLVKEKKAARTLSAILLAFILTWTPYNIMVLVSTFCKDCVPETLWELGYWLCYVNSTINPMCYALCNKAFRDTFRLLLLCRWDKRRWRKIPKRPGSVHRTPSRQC
Briefly: Inhibition of muscarinic M1 receptor at 10 uM.

Assay [6] concerns the target Kappa-type opioid receptor (Homo sapiens) (UniProt P41145). In words: Inhibition of kappa opioid receptor at 10 uM.
The target in assay [7] is T2, D(3) dopamine receptor (Homo sapiens, UniProt P35462). Briefly: Inhibition of dopamine D3 receptor.
T2 sequence (P35462 whole entry): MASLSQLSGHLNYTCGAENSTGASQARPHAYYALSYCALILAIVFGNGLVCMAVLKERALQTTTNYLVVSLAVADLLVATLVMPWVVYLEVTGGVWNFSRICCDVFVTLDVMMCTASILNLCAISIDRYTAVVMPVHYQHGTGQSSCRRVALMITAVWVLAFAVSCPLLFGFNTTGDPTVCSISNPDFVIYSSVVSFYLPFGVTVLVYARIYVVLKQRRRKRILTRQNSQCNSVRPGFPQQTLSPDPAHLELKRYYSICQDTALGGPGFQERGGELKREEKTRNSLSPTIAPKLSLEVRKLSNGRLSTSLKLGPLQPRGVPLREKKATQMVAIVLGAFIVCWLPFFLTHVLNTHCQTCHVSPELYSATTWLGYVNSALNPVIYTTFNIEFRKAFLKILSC
In assay [8] the target is T3, 5-hydroxytryptamine receptor 2B (Homo sapiens, UniProt P41595). Briefly: Inhibition of 5HT2B receptor.
T3 sequence (P41595 whole entry): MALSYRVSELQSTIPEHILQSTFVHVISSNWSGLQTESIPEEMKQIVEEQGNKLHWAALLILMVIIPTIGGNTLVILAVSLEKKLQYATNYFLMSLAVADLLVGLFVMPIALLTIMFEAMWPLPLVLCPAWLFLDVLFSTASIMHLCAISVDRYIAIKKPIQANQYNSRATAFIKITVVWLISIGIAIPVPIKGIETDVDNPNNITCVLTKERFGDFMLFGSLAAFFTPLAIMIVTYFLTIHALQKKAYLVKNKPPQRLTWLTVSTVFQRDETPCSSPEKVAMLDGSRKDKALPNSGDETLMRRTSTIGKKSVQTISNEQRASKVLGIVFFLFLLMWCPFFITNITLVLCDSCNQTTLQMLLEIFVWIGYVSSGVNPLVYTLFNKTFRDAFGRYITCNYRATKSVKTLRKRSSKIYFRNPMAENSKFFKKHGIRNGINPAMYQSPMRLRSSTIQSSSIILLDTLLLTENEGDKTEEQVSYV
Assay [9] has as its target Muscarinic acetylcholine receptor M2 (Homo sapiens, UniProt P08172). Briefly: Inhibition of muscarinic M2 receptor.
For assay [10], the target named is T4, Muscarinic acetylcholine receptor M3 (Homo sapiens, UniProt P20309). Briefly: Inhibition of muscarinic M3 receptor.
Target sequence in this assay (P20309 whole entry): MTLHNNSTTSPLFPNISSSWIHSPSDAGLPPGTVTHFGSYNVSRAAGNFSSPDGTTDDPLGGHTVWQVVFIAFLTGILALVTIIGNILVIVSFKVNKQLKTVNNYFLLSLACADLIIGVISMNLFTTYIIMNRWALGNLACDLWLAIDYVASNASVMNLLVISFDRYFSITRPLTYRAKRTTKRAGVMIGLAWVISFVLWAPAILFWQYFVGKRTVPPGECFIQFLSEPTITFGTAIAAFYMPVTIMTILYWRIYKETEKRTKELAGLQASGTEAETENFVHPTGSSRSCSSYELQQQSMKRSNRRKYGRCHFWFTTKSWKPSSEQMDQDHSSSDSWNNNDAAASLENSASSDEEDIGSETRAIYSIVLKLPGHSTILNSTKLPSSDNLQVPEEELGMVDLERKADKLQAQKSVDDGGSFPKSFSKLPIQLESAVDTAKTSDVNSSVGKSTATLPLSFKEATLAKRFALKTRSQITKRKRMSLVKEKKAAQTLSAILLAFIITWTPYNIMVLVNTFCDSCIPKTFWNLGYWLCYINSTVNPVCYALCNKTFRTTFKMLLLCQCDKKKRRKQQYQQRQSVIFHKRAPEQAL
Assay [11] deals with 5-hydroxytryptamine receptor 6 (Homo sapiens, UniProt P50406). Briefly: Inhibition of 5HT6 receptor.
For assay [12], the target named is Alpha-2A adrenergic receptor (Homo sapiens, UniProt P08913). In words: Inhibition of alpha2A adrenergic receptor.
Assay [13] concerns the target T5, Alpha-1A adrenergic receptor (Homo sapiens) (UniProt P35348).
T5 sequence (whole entry): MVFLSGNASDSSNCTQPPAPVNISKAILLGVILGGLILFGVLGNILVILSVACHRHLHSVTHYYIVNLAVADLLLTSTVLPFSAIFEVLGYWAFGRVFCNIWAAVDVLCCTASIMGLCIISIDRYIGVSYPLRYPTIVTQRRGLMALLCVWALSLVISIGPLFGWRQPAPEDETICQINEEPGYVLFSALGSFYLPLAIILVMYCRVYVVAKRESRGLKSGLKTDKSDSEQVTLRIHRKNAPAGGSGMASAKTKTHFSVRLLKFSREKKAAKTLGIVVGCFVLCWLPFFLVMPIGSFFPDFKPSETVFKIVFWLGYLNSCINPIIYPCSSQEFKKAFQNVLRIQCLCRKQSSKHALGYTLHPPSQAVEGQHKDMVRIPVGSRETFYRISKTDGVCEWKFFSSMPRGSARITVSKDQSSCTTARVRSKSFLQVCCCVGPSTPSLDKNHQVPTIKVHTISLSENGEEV
Briefly: Inhibition of alpha1A adrenergic receptor at 10 uM.

For assay [14], the target named is T6, Histamine H1 receptor (Homo sapiens, UniProt P35367). Briefly: Inhibition of H1 receptor.
In assay [15] the target is Muscarinic acetylcholine receptor M5 (Homo sapiens, UniProt P08912). Briefly: Inhibition of muscarinic M5 receptor.
The target of assay [16] is T7, 5-hydroxytryptamine receptor 2A (Homo sapiens, UniProt P28223). Briefly: Inhibition of 5HT2A receptor.
T7 sequence (P28223 whole entry): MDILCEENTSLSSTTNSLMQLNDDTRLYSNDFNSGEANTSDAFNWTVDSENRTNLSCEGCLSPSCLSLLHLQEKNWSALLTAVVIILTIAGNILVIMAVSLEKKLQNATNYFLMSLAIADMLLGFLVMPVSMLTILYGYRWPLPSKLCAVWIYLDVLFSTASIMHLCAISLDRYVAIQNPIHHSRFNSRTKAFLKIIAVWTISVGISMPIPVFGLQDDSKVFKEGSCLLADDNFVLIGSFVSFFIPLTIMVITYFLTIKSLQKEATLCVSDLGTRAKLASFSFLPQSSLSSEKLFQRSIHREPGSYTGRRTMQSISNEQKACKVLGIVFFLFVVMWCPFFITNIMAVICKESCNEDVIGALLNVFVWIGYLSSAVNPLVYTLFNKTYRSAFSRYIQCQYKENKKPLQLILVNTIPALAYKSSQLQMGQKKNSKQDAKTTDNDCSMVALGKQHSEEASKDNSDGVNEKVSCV
Assay [17] deals with T8, D(1B) dopamine receptor (Homo sapiens, UniProt P21918). Briefly: Inhibition of dopamine D5 receptor at 10 uM.
T8 sequence (P21918 whole entry): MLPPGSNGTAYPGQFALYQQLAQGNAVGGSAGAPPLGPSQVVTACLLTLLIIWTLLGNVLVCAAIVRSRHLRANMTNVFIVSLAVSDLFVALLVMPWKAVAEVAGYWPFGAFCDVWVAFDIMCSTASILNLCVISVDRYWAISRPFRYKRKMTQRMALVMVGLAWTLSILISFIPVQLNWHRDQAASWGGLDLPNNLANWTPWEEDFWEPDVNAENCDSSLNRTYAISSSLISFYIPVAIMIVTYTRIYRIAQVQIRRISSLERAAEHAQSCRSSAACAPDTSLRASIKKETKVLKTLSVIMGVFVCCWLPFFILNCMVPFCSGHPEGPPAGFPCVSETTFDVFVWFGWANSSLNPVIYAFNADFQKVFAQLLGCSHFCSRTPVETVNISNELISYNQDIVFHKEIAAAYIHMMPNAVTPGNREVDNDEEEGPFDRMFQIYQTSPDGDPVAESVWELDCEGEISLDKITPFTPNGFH
In assay [18] the target is Muscarinic acetylcholine receptor M4 (Homo sapiens, UniProt P08173). Briefly: Inhibition of muscarinic M4 receptor.
For assay [19], the target named is T9, Histamine H2 receptor (Homo sapiens, UniProt P25021). Briefly: Inhibition of H2 receptor.
T9 sequence (P25021 whole entry): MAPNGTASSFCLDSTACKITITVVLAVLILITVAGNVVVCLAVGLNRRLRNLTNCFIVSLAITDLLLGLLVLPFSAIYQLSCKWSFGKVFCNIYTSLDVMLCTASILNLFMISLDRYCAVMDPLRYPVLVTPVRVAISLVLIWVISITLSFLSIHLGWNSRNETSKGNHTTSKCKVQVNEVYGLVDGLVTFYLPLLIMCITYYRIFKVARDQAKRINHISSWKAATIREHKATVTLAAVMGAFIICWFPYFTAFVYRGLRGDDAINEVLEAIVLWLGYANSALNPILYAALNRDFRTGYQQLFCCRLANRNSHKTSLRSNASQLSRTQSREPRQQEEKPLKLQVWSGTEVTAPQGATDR
Assay [20] concerns the target T9, Histamine H2 receptor. In words: Inhibition of H2 receptor at 10 uM.
The species entered for assay [21] is Rattus norvegicus. Briefly: Inhibition of BZP receptor in rat brain. The format is tissue-based. The settings on record: concentration not given here.
Assay [22] has as its target T7, 5-hydroxytryptamine receptor 2A. Briefly: Inhibition of 5HT2A receptor at 10 uM.
The target of assay [23] is T4, Muscarinic acetylcholine receptor M3. In words: Inhibition of muscarinic M3 receptor at 10 uM.
Target sequence in this assay (P20309 whole entry, looked up): as the sequence (P20309 whole entry) above
Assay [24] addresses T2, D(3) dopamine receptor. In words: Inhibition of dopamine D3 receptor at 10 uM.
Assay [25] addresses T10, Muscarinic acetylcholine receptor M2 (Homo sapiens) (UniProt P08172).
T10 sequence (whole entry): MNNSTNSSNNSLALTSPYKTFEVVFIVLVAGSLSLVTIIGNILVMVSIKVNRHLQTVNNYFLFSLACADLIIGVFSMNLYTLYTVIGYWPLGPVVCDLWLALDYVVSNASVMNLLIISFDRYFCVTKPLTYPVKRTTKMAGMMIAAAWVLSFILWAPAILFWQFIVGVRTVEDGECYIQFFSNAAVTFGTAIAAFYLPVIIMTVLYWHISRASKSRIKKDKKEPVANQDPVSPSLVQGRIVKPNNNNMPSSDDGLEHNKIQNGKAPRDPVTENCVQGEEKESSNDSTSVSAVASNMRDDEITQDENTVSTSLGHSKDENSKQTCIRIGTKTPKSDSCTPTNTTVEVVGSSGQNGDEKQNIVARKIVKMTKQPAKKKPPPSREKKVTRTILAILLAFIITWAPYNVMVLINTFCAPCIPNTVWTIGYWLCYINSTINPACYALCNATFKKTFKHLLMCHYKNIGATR
In words: Inhibition of muscarinic M2 receptor at 10 uM.

For assay [26], the target named is Alpha-2B adrenergic receptor (Homo sapiens) (UniProt P18089). Briefly: Inhibition of alpha2B adrenergic receptor at 10 uM.
For assay [27], the target named is T8, D(1B) dopamine receptor. Briefly: Inhibition of dopamine D5 receptor.
A short description of assay [28]: Inhibition of GABAA receptor at 10 uM.
For assay [29], the target named is Alpha-2C adrenergic receptor (Homo sapiens) (UniProt P18825). In words: Inhibition of Alpha-2C adrenergic receptor at 10 uM.
The target in assay [30] is T3, 5-hydroxytryptamine receptor 2B. In words: Inhibition of 5HT2B receptor at 10 uM.
In assay [31] the target is T6, Histamine H1 receptor. In words: Inhibition of H1 receptor at 10 uM.
Assay [32] addresses Alpha-2C adrenergic receptor (Homo sapiens, UniProt P18825). In words: Inhibition of Alpha-2C adrenergic receptor.

Chain of Kappa-type opioid receptor (Homo sapiens) (P41145 whole entry): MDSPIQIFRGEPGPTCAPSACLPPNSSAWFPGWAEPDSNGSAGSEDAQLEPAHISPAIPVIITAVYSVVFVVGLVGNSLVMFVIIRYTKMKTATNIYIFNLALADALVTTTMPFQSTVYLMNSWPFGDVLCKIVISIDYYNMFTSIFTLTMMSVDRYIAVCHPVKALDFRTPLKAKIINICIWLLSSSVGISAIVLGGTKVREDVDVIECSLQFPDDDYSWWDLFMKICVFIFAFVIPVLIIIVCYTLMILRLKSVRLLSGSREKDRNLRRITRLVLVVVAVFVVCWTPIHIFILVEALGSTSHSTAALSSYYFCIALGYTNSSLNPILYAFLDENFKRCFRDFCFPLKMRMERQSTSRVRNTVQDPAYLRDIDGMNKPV
Chain of 5-hydroxytryptamine receptor 5A (Homo sapiens) (P47898 whole entry): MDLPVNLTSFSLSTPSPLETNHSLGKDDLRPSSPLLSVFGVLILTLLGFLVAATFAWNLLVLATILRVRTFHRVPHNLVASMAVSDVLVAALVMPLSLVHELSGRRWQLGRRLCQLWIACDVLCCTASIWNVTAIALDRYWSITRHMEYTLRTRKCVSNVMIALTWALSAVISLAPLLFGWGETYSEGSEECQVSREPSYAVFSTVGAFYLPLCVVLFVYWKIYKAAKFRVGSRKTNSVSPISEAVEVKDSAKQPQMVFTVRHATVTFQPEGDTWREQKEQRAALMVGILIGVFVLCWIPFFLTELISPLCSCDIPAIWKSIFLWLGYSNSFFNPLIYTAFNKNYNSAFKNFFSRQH
Chain of 5-hydroxytryptamine receptor 1D (Homo sapiens) (P28221 whole entry): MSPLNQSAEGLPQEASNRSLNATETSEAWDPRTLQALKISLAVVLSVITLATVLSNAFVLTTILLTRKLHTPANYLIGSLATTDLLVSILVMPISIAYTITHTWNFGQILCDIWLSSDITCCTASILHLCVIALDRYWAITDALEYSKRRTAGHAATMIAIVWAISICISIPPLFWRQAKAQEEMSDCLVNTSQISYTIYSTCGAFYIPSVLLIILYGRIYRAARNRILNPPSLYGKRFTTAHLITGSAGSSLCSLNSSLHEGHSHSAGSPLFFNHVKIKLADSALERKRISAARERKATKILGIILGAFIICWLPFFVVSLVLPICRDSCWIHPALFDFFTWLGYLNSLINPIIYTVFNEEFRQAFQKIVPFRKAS
Chain of Beta-1 adrenergic receptor (Homo sapiens) (P08588 whole entry, looked up): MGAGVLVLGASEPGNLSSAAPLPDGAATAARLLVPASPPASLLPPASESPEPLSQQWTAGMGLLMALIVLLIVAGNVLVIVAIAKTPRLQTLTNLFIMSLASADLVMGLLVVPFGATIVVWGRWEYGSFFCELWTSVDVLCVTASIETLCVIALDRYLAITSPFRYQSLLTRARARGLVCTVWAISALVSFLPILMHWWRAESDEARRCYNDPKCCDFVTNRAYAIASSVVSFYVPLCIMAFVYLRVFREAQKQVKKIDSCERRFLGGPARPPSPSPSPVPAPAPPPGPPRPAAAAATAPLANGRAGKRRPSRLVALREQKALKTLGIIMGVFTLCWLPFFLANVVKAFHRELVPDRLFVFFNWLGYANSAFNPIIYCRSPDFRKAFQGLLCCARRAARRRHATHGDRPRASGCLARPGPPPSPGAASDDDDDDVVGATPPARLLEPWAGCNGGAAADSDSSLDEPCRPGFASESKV
Chain of Histamine H4 receptor (Homo sapiens) (Q9H3N8 whole entry): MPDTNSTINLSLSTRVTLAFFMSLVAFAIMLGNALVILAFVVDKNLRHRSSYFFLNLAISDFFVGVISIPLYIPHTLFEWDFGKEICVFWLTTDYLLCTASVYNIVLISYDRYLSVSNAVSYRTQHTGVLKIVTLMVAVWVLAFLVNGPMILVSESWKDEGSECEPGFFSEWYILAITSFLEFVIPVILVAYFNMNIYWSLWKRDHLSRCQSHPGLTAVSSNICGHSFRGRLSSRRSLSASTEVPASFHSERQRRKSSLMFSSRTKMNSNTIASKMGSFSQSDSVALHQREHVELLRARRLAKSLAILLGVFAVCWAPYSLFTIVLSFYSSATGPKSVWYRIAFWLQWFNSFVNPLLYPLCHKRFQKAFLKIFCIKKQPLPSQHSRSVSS

One may read the inhibition as the share of the control response that was lost under treatment. Read a high inhibition as a response far below the control. One may read the Ki as the equilibrium dissociation constant of an inhibitor or competing ligand from its target. A high value points to a looser hold on the target. For the compound `Fc1cccc(CCN[C@H]2C3C4CC5C6C4CC3C6C52)c1` (stereo not given in full), the inhibition in assay [1], in assay [2], in [3], in assay [4], in assay [5] and in assay [6] was < 50% each time. Further, the inhibition in [13] and in assay [17] was < 50% in each case. Further, the Ki was 5.21 µM in assay [7]; 6.98 µM in assay [8]; 2.29 µM in assay [9]; 1.39 µM in [10]; > 10 µM in [11]; 7.61 µM in assay [12]. Besides, the Ki in assay [14] worked out at 2.38 µM; in assay [15] it was 1.83 µM; in assay [16], 6.02 µM; in assay [18], 0.705 µM; in assay [19] it was 4.42 µM.
As to `CN(Cc1cccc(F)c1)[C@H]1C2C3CC4C5C3CC2C5C41` (stereo not given in full), the inhibition in [1], in [2], in assay [3], in assay [4], in assay [5] and in assay [6] was < 50% throughout. The inhibition in assay [20], in assay [21], in assay [22], in assay [23], in assay [13] and in assay [24] was < 50% in each case. Besides, the inhibition in assay [25], in assay [26], in assay [28], in [29] and in [30] was < 50% in each case. Moreover, the Ki in assay [27] is > 10 µM.
On to `Fc1cccc(CN[C@H]2C3C4CC5C6C4CC3C6C52)c1` (stereo not given in full), for which the inhibition in assay [1], in assay [2], in [3], in assay [31], in assay [4] and in [5] was < 50% in each case. The inhibition in assay [6], in [22], in assay [23], in assay [13], in assay [25] and in [29] was < 50% throughout. Further, the inhibition in assay [17] and in assay [30] was < 50% each time. Further, the Ki was found to be 7.16 µM in [7] and 2.15 µM in assay [19].
With `CN(CCc1cccc(F)c1)[C@H]1C2C3CC4C5C3CC2C5C41` (stereo not given in full), the inhibition in [1], in assay [2], in assay [3], in assay [4], in [5] and in [6] was < 50% throughout. Further, the inhibition in assay [21], in assay [23], in assay [13], in [25], in assay [26] and in assay [28] was < 50% throughout. Further, the Ki in assay [7] is > 10 µM; in assay [8], 6.09 µM; in assay [32], 2.07 µM; in assay [16], > 10 µM; in [19] it was 4.45 µM.
